The target in the test is T1, DR1Dw1 (Homo sapiens, UniProt P01903+P01911, A100R/D57E/F55L/F60I/F76Y/I96L/L162R/M171V/P40L/Q125E/R42F/V115G/Y59C).
T1 construct: these are Drosophila transmembrane DR; made in house; host or cells: Drosophila (cells)
Put plainly: Inhibition of biotinylated RMBP 90-102 peptide binding to MHC class II DR1 (europium-streptavidin capture assay). As for the experimental part:
In studies optimizing the assay it was determined that only between 5 to 10% of the DR molecules are capable of binding added peptide. Therefore, the effective concentration of DR1Dw1 and DR4Dw4 was approximately 0.125 and 1.0 nM, respectively. […] The DR-peptide complexes (50 μL) are transferred to wells of a 96-well EIA plate precoated with LB3.1, the monoclonal antibody which recognizes the DR alleles of MHC Class II, and blocked with PBS with fetal calf serum (FCS). An additional 50 μL of 50 mM Tris, pH 7.0, containing 0.75% octyl glucoside is added to each well and the mixture incubated overnight at 4° C. Excess peptide is removed by washing with PBS containing 0.05% Tween 20 (Polyoxyethylene sorbitan monolaurate) and 0.01% NaN3. Europium-labeled streptavidin (Wallac Inc.) is added and incubated overnight. After washing, complexes are measured by the addition of Enhance™ buffer, the tradename for 0.1M acetate phthalate buffer, pH 3.2, containing 0.1% Triton X-100, tradename for polyoxyethylene ethers and other surface active compounds of Union Carbide Chemicals and Plastics Co., Inc. (particularly, a non-ionic surfactant for recovery of membrane components under non-denaturing conditions) 15 μM 2-naphthoyltrifluoroacetone, and 50 μM tri-N-octylphosphine oxide, which buffer releases the chelated europium from streptavidin and forms a highly fluorescent micellar solution. The resultant fluorescence is measured using a fluorescent plate reader (e.g., DELPHIA, Wallac, Inc.). The data are analyzed using a four-parameter logistical curve […] program (e.g., SigmaPlot) that calculates the concentration of biotinylated peptide giving a half-maximal signal (ED50).
The inhibition assay format is identical to the procedure described above with the exception that the unlabeled antagonist is serially diluted and incubated with constant concentrations of biotinylated RMBP 90-102 (0.3 nM for DR1Dw1 or 0.9 nM for DR4Dw4) and the MHC class II proteins. The concentration of unlabeled compound that prevents 50% of the labeled peptide from binding is the IC50 value. The concentration of the biotinylated RMBP 90-102 in each assay is experimentally determined to be […] one-sixth of its measured ED50 to assure the inhibition was primarily measuring the binding characteristics of the competitor.
In particular, a protocol for carrying out the inhibition assay is given below.
Add 115 μL of 5μg/mL LB3.1 in 50 mM Tris HCl pH 9.6/azide to each well of a Costar EIA plate. Incubate the plate overnight at 4° C.
Wash the plate 4 times with water/0.05% Tween-20/azide. Add 200 μL of PBS /5% FCS/azide for 1 hour at 4° C. to block the plate. The plate may be held at this point for later use or used immediately.
Flip out the block. It is not necessary to wash the plate. At 50 μL of load buffer (50 mM Tris HCl, pH 8.0 0.75% octylglucoside). Add to this volume 50 μL of the reaction mix from day 2, step 3 below.
(1) Add the following to a polypropylene round bottom 96-well plate such as a Costar #3794:
(A) Diluent (Ca Mg free PBS adjusted to pH 6.5 with 0.1 M KH2 PO4/0.75% octylglucoside/azide).81 μL
(B) Competitor at 16.6 times the final concentration in diluent or diluent alone. 9 μL
(C) biotinylated rat myelin basic protein (BRMBP) 90-102; 1.5 nM for DR1 or 4.5 nM for DR4 (These are 5× stocks of final concentrations of 0.3 nM/DR1 or 0.9 nM/DR4) 30 μL
(D) 6.25 nM DR1Dw1 or 50 nM DR4Dw4 (these are Drosophila transmembrane DR) (This is a 5× stock of the final concentration of 1.25 or 10 nM.) 30 μL Add the DR last and mix well at this time 150 μL
(2) Incubate at 37° C. for 20 min and 5 hours.
(3) Add 50 μL of this reaction mixture to one well of the blocked antibody plate from day 2 above.
(4) Incubate overnight at 4° C. to capture the DR-peptide complexes.
(6) Add 125 μL of 100 ng/mL europium streptavidin (Wallac Inc.) in Ca Mg free PBS with 3.5 mg DTPA, 1.6 mL of 30% BSA/500 mL to each well.
(7) Incubate 2 to 4 hours at 4° C. […]

[1] abbreviates: incubation at 37° C. for 20 min, 0.3 nM biotinylated RMBP 90-102, 1.25 nM DR1Dw1, pH 6.5, read-out: IC50 /μM @ 20'.
[2] abbreviates: incubation at 37° C. for 5 hours, 0.3 nM biotinylated RMBP 90-102, 1.25 nM DR1Dw1, pH 6.5, read-out: IC50 /μM @ 5h.

The results in this text go back to patent publication US5817757A, “Inhibitors of peptide binding to MHO class II proteins” (Merck & Co., Inc., priority 1996, dated 1998).

Where two headings read alike, the source gives them in different places.

Turning to `CCCC(NC(=O)C(C)(C)NCCCC1CCCCC1)C(=O)NC(CC(C)C)C(N)=O` (stereo not drawn) [Example 2, N-α((2-Methyl-2-((3-cyclohexyl)propylamino))-propanoyl)-Nva-Leu-NH2], the IC50 is, setting by setting: under setting [1], 0.26 µM; under setting [2], 1.59 µM.

Regarding `CCCC(NC(=O)C(Cc1cccnc1)NCCCC1CCCCC1)C(=O)NC1CCCCNC1=O` (stereo not shown) [Example 5], the IC50 under setting [1] was determined as 0.21 µM and the IC50 under setting [2] is 1.43 µM.

On to `CCC[C@H](NC(=O)[C@H](CCCCN)NC(=O)C=Cc1ccccc1C)C(=O)N[C@@H](CC(C)C)C(N)=O` [Example 13, α-[2-methylcinnamoyl]-Lys-Nva-Leu-NH2], for which the IC50 came out at 0.25 µM under setting [1] and 1.7 µM under setting [2].

For the compound `CCCC(NC(=O)C(CCCCN)NC(=O)CC(C)c1ccccc1)C(=O)NC(CC(C)C)C(N)=O` (stereo not drawn) [Example 34, α-[3R-methyl-3-phenylpropionyl]-Lys-Nva-Leu-NH2], the IC50 under setting [1] was found to be 0.16 µM and the IC50 under setting [2] is 1.25 µM.

Turning to `CCCC(NC(=O)C(CCCCN)NC(=O)CC(C)C1CCCCC1)C(=O)NC(CC(C)C)C(N)=O` (stereo not drawn) [Example 36, α-[3R-methyl-3-cyclohexylpropionyl]-Lys-Nva-Leu-NH2], the IC50 by setting is: under setting [1], 0.04 µM; under setting [2], 0.187 µM.

`CCCC(NC(=O)C(CCCCN)NCCCC1CCCCC1)C(=O)NC(CC(C)C)C(N)=O` (stereo not drawn) [Example 40, α-[3-Cyclohexylpropyl]-Lys-Nva-Leu-NH2]: the IC50 is 0.0052 µM under setting [1] and 0.059 µM under setting [2].

For the compound `CCCC(NC(=O)C(CCCCN)NCCCC1CCCCC1)C(=O)NN(CC(C)C)C(=O)OCC` (stereo not drawn) [Example 48, α-[3 -Cyclohexylpropyl]-Lys-Nva-α-AzaLeu-OEt], the IC50 is 0.15 µM under setting [1] and 0.68 µM under setting [2].

`CCCCN(NC(=O)C(CCC)NC(=O)C(CCCCN)NCCCC1CCCCC1)C(=O)OCC` (stereo not drawn) [Example 50, α-[3-Cyclohexylpropyl]-Lys-Nva-α-AzaNle-OEt]: the IC50 is, setting by setting: under setting [1], 0.046 µM; under setting [2], 0.26 µM.

Regarding `CCCCN(NC(=O)C(CCC)NC(=O)C(CCCCN)NCC1CCc2ccccc2C1)C(=O)OCC` (stereo not drawn) [Example 52, α-[1,2,3,4-tetrahydronaphthyl-2-methyl]-Lys-Nva-α-AzaNle-OEt], the IC50 came out at 0.03 µM under setting [1] and 0.14 µM under setting [2].

With “α-[3-Phenylpropyl]-Lys-Nva-Leu-NH2 [Example 38]”, the IC50 is, setting by setting: under setting [1], 0.16 µM; under setting [2], 1.8 µM.

In the case of “α-[(1R,2S)-1-Cyclohexylcyclopropyl-1-carbonyl]-Lys-Nva-Leu-NH2 [Example 22]”, the IC50 under setting [1] was 0.012 µM and the IC50 under setting [2] worked out at 1.08 µM.
